Test results taken from ChEMBL document CHEMBL1201862, “PubChem BioAssay data set” (2004).
Activity calls are given as the source filed them.

Columns and labels:
Mucolipin-3 = Mucolipin-3 (Homo sapiens, UniProt Q8TDD5); assay: Dose response cell-based high-throughput screening assay for agonists of the transient receptor potential channel ML3 (TRPML3). [Related pubchem assays: 1526, 1424, 1448 ]; type: functional
Ion channel NompC = Ion channel NompC (Danio rerio, UniProt Q7T1G6); assay: Fluorescence counterscreen assay for TRPML3 agonists: dose response cell-based high-throughput screening assay to identify agonists of the transient receptor potential channel N1 (TRPN1). [Related pubchem assays: 1526, 1424, 1448 ]; type: functional
Chain of Ion channel NompC (Q7T1G6 whole entry): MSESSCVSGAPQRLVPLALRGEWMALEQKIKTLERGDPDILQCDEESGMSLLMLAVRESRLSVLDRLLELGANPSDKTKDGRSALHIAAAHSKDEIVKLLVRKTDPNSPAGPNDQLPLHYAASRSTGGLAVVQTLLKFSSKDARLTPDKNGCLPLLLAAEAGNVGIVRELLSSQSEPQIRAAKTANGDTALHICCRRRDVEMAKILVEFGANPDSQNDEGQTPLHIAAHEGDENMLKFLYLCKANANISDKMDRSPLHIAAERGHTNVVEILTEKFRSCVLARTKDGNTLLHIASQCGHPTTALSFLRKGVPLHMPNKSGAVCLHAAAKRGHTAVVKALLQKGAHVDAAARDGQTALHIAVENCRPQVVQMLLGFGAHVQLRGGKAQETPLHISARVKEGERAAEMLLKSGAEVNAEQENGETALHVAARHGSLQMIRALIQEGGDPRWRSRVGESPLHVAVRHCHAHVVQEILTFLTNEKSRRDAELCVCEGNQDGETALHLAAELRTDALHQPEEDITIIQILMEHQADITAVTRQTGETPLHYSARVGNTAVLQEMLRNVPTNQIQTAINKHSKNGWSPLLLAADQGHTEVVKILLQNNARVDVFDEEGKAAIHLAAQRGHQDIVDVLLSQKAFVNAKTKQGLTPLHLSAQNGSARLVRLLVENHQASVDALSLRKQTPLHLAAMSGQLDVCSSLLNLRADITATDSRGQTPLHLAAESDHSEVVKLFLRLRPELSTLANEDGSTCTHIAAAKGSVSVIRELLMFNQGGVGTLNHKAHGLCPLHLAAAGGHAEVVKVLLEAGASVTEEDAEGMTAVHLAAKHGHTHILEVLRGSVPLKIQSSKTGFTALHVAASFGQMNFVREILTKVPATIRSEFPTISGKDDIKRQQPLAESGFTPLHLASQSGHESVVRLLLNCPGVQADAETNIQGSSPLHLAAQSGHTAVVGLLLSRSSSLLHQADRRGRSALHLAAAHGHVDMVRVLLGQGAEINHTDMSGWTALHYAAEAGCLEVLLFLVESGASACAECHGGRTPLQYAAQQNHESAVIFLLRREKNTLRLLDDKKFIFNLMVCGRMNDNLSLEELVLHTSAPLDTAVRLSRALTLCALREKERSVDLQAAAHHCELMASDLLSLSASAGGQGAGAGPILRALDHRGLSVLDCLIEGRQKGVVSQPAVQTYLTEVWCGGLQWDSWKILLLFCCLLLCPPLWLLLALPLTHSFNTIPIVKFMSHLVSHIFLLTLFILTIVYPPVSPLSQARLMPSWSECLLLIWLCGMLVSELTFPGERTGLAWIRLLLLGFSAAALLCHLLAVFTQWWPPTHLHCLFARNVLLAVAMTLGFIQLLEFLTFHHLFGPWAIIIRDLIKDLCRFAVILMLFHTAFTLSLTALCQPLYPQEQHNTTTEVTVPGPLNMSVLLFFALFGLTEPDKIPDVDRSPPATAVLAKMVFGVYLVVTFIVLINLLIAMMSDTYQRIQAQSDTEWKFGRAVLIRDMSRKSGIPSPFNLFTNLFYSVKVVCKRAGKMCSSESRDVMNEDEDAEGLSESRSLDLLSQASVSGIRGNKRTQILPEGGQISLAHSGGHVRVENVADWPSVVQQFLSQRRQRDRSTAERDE

[1] = Luminescence-based counterscreen assay for KLF5 inhibitors: dose response cell-based high throughput screening assay to identify cytotoxic compounds using the IEC-6 intestinal epithelial cell line. [Related pubchem assays: 1700 (Primary screen.), 1834 (Confirmation screen.), 1858 (Summary AID.), 1905 (Counterscreen.)]; type: functional
HEK293 [2] = assay: NOD2 signaling inhibitors in MDP-stimulated cells, cell-based, uHTS, luminescence (AID 2001); type: functional; conditions: Homo sapiens
HEK293 [3] = assay: cells; type: functional, cell-based; conditions: Homo sapiens
HEK293 [4] = assay: cells; type: functional, cell-based; conditions: Homo sapiens; remark: listed apart in the source
HEK293 [5] = assay: inhibition of NOD1-driven NF-kB reporter – cell-based, luminescence, uHTS, primary screen (AID 1578); type: functional; conditions: Homo sapiens
HEK293 [6] = assay: cells; type: functional, cell-based; conditions: Homo sapiens; remark: listed apart in the source
[7] = biological target: Nucleotide-binding oligomerization domain-containing protein 2 (Homo sapiens, UniProt Q9HC29); assay: inhibition of NOD2-driven NF-kB reporter – cell-based, luminescence, uHTS, HEK293 (AID 1566); type: functional
Chain of Nucleotide-binding oligomerization domain-containing protein 2 (Q9HC29 whole entry, the tested form may be a part): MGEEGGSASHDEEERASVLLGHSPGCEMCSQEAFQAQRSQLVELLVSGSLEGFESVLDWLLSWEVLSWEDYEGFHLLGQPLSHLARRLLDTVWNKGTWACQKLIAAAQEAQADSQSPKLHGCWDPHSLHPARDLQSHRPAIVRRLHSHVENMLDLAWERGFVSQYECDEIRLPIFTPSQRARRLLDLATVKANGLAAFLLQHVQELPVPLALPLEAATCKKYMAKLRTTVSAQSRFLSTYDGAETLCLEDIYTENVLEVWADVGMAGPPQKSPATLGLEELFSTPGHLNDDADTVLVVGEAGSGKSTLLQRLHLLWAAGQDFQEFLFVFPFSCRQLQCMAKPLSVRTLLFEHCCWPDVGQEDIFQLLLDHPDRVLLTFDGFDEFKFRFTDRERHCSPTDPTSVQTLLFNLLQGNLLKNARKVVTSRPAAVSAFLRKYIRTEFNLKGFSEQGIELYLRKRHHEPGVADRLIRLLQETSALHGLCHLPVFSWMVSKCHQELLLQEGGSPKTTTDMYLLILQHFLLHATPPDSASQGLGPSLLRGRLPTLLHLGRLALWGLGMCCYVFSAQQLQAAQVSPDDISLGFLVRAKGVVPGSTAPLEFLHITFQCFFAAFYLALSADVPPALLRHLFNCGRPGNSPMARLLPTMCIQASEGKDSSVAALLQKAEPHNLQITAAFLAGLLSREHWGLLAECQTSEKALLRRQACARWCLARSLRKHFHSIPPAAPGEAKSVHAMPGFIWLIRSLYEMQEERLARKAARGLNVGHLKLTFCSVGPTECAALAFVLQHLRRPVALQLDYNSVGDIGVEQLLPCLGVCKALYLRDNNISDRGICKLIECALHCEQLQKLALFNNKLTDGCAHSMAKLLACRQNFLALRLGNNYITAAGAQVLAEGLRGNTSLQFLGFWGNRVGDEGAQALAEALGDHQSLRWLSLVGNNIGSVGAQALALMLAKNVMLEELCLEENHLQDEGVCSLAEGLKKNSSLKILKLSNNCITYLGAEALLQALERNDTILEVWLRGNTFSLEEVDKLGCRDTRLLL

[8] = biological target: Eukaryotic translation initiation factor 4H (Homo sapiens, UniProt Q15056); assay: eIF4H binding inhibition – biochemical, uHTS, fluorescence polarization, translation initiation inhibitor project, primary screen (AID 2012)
[9] = biological target: Polyadenylate-binding protein 1 (Homo sapiens, UniProt P11940); assay: blockers of PABP interaction with poly(A) – biochemical, fluorescence polarization, […] (AID 2014)
Chain of Polyadenylate-binding protein 1 (P11940 whole entry): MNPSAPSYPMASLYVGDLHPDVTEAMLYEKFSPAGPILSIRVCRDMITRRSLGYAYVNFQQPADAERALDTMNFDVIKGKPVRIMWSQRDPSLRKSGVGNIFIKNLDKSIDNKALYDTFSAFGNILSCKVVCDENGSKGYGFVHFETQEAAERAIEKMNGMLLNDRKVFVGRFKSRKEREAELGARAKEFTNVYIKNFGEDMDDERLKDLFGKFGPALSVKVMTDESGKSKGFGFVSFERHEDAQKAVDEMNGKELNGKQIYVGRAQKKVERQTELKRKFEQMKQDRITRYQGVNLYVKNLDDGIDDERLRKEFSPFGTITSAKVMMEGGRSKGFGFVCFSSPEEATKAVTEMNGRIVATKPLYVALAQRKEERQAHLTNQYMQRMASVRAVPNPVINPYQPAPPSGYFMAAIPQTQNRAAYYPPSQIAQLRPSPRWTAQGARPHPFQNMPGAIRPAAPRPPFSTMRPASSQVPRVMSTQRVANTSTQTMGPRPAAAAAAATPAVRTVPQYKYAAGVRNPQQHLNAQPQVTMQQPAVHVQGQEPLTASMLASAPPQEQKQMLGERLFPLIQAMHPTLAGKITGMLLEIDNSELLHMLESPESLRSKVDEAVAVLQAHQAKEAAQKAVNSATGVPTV

Estrogen receptor beta = Estrogen receptor beta (Homo sapiens, UniProt Q92731); assay: blockers of SRC-3 recruitment to ERβ – biochemical, ELISA, streptavidin-HRP readout, orthogonal assay, confirmation (AID 1060)
Chain of Estrogen receptor beta (Q92731 whole entry): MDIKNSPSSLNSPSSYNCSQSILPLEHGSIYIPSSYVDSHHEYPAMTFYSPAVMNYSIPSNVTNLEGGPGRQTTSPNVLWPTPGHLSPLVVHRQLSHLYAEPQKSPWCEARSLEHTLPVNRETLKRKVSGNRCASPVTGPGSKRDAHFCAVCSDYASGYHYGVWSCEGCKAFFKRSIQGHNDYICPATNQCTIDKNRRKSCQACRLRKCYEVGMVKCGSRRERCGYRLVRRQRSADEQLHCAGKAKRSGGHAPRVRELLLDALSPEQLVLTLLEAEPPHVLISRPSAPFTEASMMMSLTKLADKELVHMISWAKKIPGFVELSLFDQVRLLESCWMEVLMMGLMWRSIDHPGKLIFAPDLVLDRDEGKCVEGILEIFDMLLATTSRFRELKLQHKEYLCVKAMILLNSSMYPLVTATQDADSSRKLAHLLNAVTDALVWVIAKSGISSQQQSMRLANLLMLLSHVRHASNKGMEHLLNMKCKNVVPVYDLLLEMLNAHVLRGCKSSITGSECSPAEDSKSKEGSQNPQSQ

[10] = biological target: T1, Replicative DNA helicase DnaB (Mycobacterium tuberculosis, UniProt P9WMR3); assay: DnaB intein splicing inhibitors, dose response, biochemical, cell-free fluorescence (AID 449749); type: functional
T1 sequence (P9WMR3 whole entry): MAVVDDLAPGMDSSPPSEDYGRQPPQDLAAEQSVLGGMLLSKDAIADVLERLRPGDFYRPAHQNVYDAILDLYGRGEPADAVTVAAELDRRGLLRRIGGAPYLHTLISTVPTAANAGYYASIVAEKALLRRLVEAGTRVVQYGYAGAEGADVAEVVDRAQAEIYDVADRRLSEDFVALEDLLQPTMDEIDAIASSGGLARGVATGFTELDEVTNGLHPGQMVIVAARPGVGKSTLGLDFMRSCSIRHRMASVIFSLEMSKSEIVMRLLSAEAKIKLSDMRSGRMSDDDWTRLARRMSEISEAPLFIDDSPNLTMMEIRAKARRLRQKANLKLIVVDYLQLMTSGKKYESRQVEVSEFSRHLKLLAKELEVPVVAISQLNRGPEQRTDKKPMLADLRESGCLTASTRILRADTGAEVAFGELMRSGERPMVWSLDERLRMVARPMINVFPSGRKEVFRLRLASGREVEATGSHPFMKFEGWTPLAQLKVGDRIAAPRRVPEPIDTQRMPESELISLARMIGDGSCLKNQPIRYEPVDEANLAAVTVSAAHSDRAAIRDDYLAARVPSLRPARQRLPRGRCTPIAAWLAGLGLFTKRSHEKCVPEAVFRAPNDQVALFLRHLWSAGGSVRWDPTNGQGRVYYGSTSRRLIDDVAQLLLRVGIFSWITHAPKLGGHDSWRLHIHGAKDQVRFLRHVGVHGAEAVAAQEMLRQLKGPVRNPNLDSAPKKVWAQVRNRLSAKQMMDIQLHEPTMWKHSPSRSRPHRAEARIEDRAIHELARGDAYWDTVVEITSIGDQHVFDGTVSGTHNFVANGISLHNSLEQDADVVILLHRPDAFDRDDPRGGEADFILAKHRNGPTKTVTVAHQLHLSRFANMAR

[11] = biological target: Eukaryotic translation initiation factor 4E (Mus musculus, UniProt P63073); assay: blockers of eIF4G binding by eIF4E – biochemical, TR-FRET, dose response (AID 855); type: functional;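 further: potency for disrupting eIF4E binding to eIF4GI seen as loss of FRET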
Chain of Eukaryotic translation initiation factor 4E (P63073 whole entry): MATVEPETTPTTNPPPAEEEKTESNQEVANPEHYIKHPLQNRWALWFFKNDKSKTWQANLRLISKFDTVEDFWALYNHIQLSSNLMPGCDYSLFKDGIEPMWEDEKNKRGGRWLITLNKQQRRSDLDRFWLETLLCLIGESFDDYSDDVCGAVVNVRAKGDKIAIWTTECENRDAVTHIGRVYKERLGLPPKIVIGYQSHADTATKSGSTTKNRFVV

Protein RecA = biological target: T2, Protein RecA (Mycobacterium tuberculosis, UniProt P9WHJ3); assay: Fluorescence Cell-Free Homogeneous Dose Retest to Identify Inhibitors of RecA-Intein Splicing Activity. [Related pubchem assays (depositor defined):AID2097, AID2223, AID489010, AID492950]; type: functional
T2 sequence (P9WHJ3 whole entry): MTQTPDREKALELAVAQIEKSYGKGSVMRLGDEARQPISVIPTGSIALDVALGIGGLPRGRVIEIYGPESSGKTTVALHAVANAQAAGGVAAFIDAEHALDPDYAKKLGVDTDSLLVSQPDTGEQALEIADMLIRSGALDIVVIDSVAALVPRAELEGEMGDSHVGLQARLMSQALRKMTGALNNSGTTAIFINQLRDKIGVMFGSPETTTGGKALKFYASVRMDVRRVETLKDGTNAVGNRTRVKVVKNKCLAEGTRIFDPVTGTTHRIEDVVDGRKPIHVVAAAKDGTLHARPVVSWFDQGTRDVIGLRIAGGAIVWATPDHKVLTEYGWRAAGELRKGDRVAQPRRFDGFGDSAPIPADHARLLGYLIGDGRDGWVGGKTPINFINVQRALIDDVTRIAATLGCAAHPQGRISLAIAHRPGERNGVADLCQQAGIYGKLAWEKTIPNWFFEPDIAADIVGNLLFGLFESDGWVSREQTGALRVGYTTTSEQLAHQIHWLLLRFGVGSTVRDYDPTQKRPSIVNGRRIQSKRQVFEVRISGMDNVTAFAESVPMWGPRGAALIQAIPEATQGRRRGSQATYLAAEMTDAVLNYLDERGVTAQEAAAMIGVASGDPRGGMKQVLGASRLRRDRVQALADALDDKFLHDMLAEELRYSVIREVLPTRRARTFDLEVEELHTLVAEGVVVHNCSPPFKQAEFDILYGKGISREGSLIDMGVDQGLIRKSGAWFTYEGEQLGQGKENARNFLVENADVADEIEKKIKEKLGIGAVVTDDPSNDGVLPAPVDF

[12] = viability of HCT116 lacking mutant beta-catenin – cell-based, human colon tumor, dose response (AID 1045); type: functional;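 further: HCT116 colon tumor cells with beta catenin knocked out; cells exposed to compound for 60 hours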
[13] = viability of PTEN-deleted HCT116 cells – cell-based, HCT116 PTEN knockout, dose response (AID 1047); type: functional;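 further: HCT116 colon tumor cells with PTEN knocked out; cells exposed to compound for 60 hours before readout; potency for loss of cell viability measured by luminescence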
[14] = biological target: T3, RNA-binding protein pos-1 (Caenorhabditis elegans, UniProt G5EF15); assay: disruptors of C. elegans POS-1 RNA interaction – biochemical, fluorescence polarization, dose response (AID 1964);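 further: purified POS-1 fused to maltose binding protein made in E. coli; potency of compounds blocking POS-1 binding to fluorescent RNA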
T3 sequence (G5EF15 whole entry): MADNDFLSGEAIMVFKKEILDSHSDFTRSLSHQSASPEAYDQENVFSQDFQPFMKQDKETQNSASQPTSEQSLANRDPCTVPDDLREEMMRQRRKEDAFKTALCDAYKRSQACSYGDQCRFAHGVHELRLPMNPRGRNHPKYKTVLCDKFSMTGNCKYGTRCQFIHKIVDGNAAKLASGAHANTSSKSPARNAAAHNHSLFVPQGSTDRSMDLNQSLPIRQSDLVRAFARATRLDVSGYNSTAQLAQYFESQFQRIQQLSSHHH

[15] = biological target: T4, Zinc finger protein mex-5 (Caenorhabditis elegans, UniProt Q9XUB2); assay: potency of MEX-5 RNA-binding blockers – biochemical, C. elegans, fluorescence polarization, dose response (AID 1960)
T4 sequence (Q9XUB2 whole entry): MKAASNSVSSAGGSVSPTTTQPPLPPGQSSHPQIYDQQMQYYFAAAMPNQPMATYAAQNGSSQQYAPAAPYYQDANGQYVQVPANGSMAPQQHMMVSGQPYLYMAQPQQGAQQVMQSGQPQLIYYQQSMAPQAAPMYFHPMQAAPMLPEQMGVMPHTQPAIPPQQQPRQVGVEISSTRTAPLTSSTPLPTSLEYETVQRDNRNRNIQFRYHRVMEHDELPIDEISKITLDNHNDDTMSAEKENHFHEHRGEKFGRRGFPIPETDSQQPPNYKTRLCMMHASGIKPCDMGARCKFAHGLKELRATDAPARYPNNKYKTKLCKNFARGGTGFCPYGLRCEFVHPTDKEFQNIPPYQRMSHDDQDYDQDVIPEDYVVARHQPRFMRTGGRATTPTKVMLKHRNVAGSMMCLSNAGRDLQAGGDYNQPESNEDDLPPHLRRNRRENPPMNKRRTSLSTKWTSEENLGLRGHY

[16] = A cytotoxicity screen of small molecule inhibitors of the PhoP region in Salmonella typhi identified in the primary screen. [Related pubchem assays: 1850, 1864, 1985 ]; type: functional

Chain of Mucolipin-3 (Q8TDD5 whole entry): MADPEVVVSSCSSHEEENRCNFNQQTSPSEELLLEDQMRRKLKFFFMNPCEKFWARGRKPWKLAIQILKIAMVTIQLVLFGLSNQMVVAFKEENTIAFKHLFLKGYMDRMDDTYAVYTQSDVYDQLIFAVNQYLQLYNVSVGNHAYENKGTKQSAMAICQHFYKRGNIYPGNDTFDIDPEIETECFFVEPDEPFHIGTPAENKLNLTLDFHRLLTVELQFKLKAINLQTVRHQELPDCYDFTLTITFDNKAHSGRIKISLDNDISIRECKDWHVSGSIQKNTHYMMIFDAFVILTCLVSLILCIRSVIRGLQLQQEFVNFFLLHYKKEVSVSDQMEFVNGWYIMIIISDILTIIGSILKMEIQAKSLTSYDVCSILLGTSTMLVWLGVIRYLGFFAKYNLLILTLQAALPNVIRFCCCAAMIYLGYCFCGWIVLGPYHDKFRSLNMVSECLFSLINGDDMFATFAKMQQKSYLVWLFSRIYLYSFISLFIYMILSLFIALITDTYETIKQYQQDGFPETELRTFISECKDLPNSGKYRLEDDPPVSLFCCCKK

Structure (SMILES): CC1CCN(S(=O)(=O)c2ccc3ccccc3c2)CC1
- EC50 (Mucolipin-3): 2.83 µM (active)
- EC50 (Ion channel NompC): > 29.9 µM (not active)

Structure (SMILES): Cc1cc(/C=N/Nc2nc(N)ncc2[N+](=O)[O-])c(C)n1-c1ccccc1F
- IC50 [1]: > 39.8 µM (not active)
- IC50 (HEK293 [2]): 6.02 µM (active)
- IC50 (HEK293 [3]): > 20 µM (inactive)
- IC50 (HEK293 [4]): 1.77 µM (active)
- EC50 (HEK293 [5]): 4.64 µM (active)
- IC50 (HEK293 [6]): > 20 µM (inactive)
- EC50 [7]: < 0.31 µM (inactive)

Structure (SMILES): CCN(CC)C(=O)CC(c1ccc2c(c1)OCO2)c1c(OC)cc(OC)c2ccc(=O)oc12 (stereo not given)
- IC50 [8]: 10.3 µM (active)
- IC50 [9]: 20.1 µM (active)

Structure (SMILES): CN1CCN(C2=C(Cl)C(=O)C(c3cnc(N4CCCCC4)s3)=C(Cl)C2=O)CC1
- IC50 (Estrogen receptor beta): 0.63 µM (not active)
- AC50 [10]: > 380 µM (inactive)
- IC50 [11]: 19.2 µM (inactive)
- EC50 (Protein RecA): 1.29 µM (active)
- EC50 [12]: 8.57 µM (active)
- EC50 [13]: 10.1 µM (active)
- EC50 [14]: 5.11 µM (active)
- EC50 [15]: 4.18 µM (active)

Structure (SMILES): Clc1ccc(Nc2nc(C3CC3)cs2)cc1
- EC50 [16]: > 50 µM (active)
